From patent US7544512B2, “Method of producing insulinotropic GLP-1 (7-36) polypeptide and/or GLP-1 analogs” (Shanhai Hua Yi Bio-Tech Lab, priority 2001, dated 2009)

What was measured:
Assay type in all cases: in vivo
insulin secretion = experiment: Effect on insulin secretion in mice (serum insulin, radioimmunoassay); details: healthy C57/BL/6J mice, 2 μg injected into abdominal cavity, blood at 0, 5, 15, 30, 60 min, FIG. 9
Protocol: Healthy C57/BL/6J mice were purchased from the Shanghai Laboratory Animal Center of Chinese Academy of Sciences. The mice were divided into three groups with 6 mice in each group. The placebo group of mice received 200 μl of saline injected into their abdominal cavity, while the testing group received 2 μg of GLP-1 (7-36) and the positive control group received 2 μg of GLP-1 (7-36)NH2 (BACHEM). The moment when the animals received the injection was set as time zero. 50 μl of blood were drawn from the veins at angulus oculi with a graduated capillary which had been rinsed with heparin and then dried. The blood samples were subsequently drawn at 5, 15, 30 and 60 minutes. The blood samples were immediately mixed with 50 μl of saline in a micro-centrifuge tube. The mixture was centrifuged at 3000 rpm to remove erythrocytes. The serum was used to measure insulin concentration.
The radioimmunoassay kit (Shanghai Institute of Biological Products, Chinese Ministry of Health) for insulin was used to measure the effect of GLP-1 (7-36) on insulin secretion. […] This observation indicates the administration of either GLP-1 (7-36) or GLP-1 (7-36)NH2 enhances the secretion of insulin in mice.

blood glucose [1] = experiment: Effect on blood glucose level in glucose-loaded C57/BL/6J mice; details: C57/BL/6J mice fasted overnight, 200 μl of 40% glucose plus 2 μg peptide into abdominal cavity, 0, 30, 60, 120 min, FIG. 11
Protocol: Healthy C57/BL/6J mice were purchased from Shanghai Laboratory Animal Center of Chinese Academy of Sciences. The mice were divided into four groups with 6 mice in each group. Mice fasted overnight were injected by abdominal cavity. The placebo group were injected with 200 μl of 40% glucose solution, the testing group were injected with 200 μl of 40% glucose solution plus 2 μg of GLP-1 (7-36), the positive control group(I) were injected with 200 μl of 40% glucose solution plus 2 μg of GLP-1 (7-36)NH2 (Sigma), and the positive control group(II) were injected with 200 μl of 40% glucose solution plus 2 μg of GLP-1 (7-37) (Sigma). The moment when the animals received the injection was set as time zero. After the injection, 20 μl of blood sample were immediately drawn from optic sinus of each mouse with a heparin-treated capillary. The blood samples were immediately mixed with 300 μl of saline in a micro-centrifuge tube. The mixture was centrifuged at 3000 rpm to remove erythrocytes. The serum was used to measure serum glucose concentration. This procedure was repeated at the 30th, 60th and 120th minutes.
The serum blood glucose concentration was measured by a commercial kit (Shanghai Institute of Biological Products, Chinese Ministry of Health).

blood glucose [2] = experiment: Comparison of reducing blood glucose effect in Kun Ming mice; details: fasted 4 hours, glucose 2 g/kg intraperitoneally, 50 ng/Kg peptide, 30 minutes; for Rate (reduction of blood glucose): versus control
Protocol: Kun Ming mice (40 in total, male, 23 g body weight/mouse) were divided into 4 groups. After fasting for 4 hours, each mouse was injected with glucose (2 g/kg body weight) intraperitoneally. Then mice in the testing group were rejected with 50 ng/Kg of GLP-1 (7-36), GLP-1 (7-36)NH2 (BACHEM) and GLP-1 (7-37)COOH (BACHEM) respectively, while mice in the control group were rejected with 0.9% NaCl saline. Blood sample was collected at the zero time and 30 minutes later for the analysis.

C-peptide secretion = experiment: Effect on C-peptide secretion in mice (serum C-peptide, radioimmunoassay); details: C57/BL/6J mice, 10 μg injected into abdominal cavity, FIG. 10
Protocol: As described in Example 14, C57/BL/6J mice were divided into two groups with the placebo group receiving 200 μl of saline injected into abdominal cavity and the testing group receiving 10 μg of GLP-1 (7-36). A radioimmunoassay kit (Shanghai Institute of Biological Products, Chinese Ministry of Health) for C-peptide was used to measure the effect of GLP-1 (7-36) on C-peptide secretion.

GLP-1 (7-36)NH2: natural GLP-1 form of 30 amino acid residues with C-terminal amidated; positive control from BACHEM or Sigma
serum insulin concentration (insulin secretion): significant increase | serum blood glucose concentration (blood glucose [1]): no obvious rise from the normal level | Blood Glucose (blood glucose [2]): 8.69 mmol/L | Rate (reduction of blood glucose) (blood glucose [2]): 36.8%

GLP-1 (7-37): natural GLP-1 form of 31 amino acid residues; positive control from Sigma or BACHEM (HAEGTFTSDVSSYLEGQAAKEFIAWLVKGRG; homo sapiens)
serum blood glucose concentration (blood glucose [1]): no obvious rise from the normal level | Blood Glucose (blood glucose [2]): 6.77 mmol/L | Rate (reduction of blood glucose) (blood glucose [2]): 50.7%

His-Ala-Glu-Gly-Thr-Phe-Thr-Ser-Asp-Val-Ser-Ser-Tyr-Leu-Glu-Gly-Gln-Ala-Ala-Lys-Glu-Phe-Ile-Ala-Trp-Leu-Val-Lys-Gly-Arg−OH (HAEGTFTSDVSSYLEGQAAKEFIAWLVKGR; homo sapiens) [GLP-1 (7-36)]
serum insulin concentration (insulin secretion): significant increase | serum C-peptide concentration (C-peptide secretion): significant increase | serum blood glucose concentration (blood glucose [1]): no obvious rise from the normal level | Blood Glucose (blood glucose [2]): 6.51 mmol/L | Rate (reduction of blood glucose) (blood glucose [2]): 50.4%
